From article PMC11314561, “Design and Synthesis of Novel Aminoindazole-pyrrolo[2,3-b]pyridine Inhibitors of IKKα That Selectively Perturb Cellular Non-Canonical NF-κB Signalling” (Molecules, 2024)

Key:
Assay in all cases: kinase panel
Format in all cases: biochemical
[1] = target: T1, Aurora-C(h) (Homo sapiens, UniProt Q9UQB9)
T1 sequence (Q9UQB9 1-309): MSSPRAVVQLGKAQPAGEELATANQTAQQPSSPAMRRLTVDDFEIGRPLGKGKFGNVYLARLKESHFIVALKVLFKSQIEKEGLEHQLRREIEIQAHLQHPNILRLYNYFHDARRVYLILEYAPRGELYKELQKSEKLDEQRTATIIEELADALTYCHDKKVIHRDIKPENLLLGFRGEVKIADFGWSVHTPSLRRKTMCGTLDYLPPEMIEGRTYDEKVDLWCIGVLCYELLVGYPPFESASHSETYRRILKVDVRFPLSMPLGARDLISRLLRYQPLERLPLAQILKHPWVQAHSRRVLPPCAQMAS
Summary of the method: (§1)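 Values are percent inhibition from kinome-wide profiling of three series compounds across 231 kinases, with a structurally similar analogue tested on only 98 selected kinases.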

[2] = target: BRK(h) (Homo sapiens, UniProt Q13882)
Summary of the method: as §1

[3] = target: CDK5/p35(h) (Homo sapiens, UniProt Q00535)
Summary of the method: as §1

[4] = target: CDK7/cyclinH/MAT1(h) (Homo sapiens, UniProt P50613)
Summary of the method: as §1

[5] = target: T2, IRAK4(h) (Homo sapiens, UniProt Q9NWZ3)
T2 sequence (Q9NWZ3 1-460): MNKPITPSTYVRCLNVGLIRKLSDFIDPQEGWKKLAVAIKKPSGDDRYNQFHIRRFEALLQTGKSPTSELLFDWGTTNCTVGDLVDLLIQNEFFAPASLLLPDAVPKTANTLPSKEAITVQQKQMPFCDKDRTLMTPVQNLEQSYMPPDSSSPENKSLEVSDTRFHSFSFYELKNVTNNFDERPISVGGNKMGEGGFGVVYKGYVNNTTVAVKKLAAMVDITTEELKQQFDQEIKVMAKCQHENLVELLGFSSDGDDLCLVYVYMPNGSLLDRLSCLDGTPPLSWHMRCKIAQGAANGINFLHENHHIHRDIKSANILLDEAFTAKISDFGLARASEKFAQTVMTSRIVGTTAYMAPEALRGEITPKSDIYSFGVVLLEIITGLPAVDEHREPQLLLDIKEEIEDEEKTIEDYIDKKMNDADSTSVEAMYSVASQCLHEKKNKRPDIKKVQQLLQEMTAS
Summary of the method: as §1

[6] = target: JAK2(h) (Homo sapiens, UniProt O60674)
Summary of the method: as §1

[7] = target: LIMK1(h) (Homo sapiens, UniProt P53667)
Summary of the method: as §1

[8] = target: T3, NEK2(h) (Homo sapiens, UniProt P51955)
T3 sequence (P51955 1-445): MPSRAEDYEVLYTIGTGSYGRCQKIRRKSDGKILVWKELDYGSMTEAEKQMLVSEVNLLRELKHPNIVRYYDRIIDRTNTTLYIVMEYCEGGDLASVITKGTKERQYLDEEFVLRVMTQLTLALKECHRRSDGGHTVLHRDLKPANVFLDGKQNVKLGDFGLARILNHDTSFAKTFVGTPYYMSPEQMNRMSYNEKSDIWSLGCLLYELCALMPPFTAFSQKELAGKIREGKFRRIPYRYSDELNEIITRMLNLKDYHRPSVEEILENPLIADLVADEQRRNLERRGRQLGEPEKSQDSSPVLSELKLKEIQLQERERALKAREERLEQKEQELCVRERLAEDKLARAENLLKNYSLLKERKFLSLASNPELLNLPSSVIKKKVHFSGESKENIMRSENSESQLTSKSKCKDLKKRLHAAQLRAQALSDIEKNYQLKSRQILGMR
Summary of the method: as §1

[9] = target: Rsk1(h) (Homo sapiens, UniProt Q15418)
Summary of the method: as §1

[10] = target: T4, SAPK4(h) (Homo sapiens, UniProt O15264)
T4 sequence (O15264 1-365): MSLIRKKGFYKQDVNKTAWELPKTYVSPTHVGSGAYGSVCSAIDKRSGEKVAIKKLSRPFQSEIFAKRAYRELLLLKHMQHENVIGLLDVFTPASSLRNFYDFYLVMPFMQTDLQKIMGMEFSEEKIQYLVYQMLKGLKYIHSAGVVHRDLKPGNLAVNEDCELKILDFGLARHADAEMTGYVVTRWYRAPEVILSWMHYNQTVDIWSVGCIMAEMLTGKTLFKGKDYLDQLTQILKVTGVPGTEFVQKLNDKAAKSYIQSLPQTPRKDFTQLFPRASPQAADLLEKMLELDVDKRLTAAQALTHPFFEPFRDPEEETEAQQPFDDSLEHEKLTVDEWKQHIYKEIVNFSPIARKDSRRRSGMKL
Summary of the method: as §1

[11] = target: T5, TBK1(h) (Homo sapiens, UniProt Q9UHD2)
T5 sequence (Q9UHD2 1-729): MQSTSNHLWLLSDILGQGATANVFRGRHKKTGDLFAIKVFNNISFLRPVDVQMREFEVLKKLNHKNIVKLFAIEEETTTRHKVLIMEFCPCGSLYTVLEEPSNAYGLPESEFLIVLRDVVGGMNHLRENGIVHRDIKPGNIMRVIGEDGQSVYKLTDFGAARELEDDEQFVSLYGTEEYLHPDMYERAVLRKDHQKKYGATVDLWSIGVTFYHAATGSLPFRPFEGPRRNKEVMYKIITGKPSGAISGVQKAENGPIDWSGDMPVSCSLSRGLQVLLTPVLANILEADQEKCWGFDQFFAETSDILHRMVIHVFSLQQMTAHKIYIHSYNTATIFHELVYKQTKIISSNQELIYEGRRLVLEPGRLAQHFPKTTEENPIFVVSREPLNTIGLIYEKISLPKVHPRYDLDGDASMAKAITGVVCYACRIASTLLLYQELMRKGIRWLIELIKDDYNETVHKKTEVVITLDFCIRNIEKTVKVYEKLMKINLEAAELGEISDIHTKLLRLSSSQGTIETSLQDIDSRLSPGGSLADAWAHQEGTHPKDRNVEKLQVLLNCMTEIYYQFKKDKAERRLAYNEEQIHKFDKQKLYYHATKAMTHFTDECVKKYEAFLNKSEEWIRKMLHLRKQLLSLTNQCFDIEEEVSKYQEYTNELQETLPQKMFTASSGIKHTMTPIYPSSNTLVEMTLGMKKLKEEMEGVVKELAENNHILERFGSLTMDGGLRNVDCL
Summary of the method: as §1

CDK5/p35(h), sequence (Q00535 whole entry): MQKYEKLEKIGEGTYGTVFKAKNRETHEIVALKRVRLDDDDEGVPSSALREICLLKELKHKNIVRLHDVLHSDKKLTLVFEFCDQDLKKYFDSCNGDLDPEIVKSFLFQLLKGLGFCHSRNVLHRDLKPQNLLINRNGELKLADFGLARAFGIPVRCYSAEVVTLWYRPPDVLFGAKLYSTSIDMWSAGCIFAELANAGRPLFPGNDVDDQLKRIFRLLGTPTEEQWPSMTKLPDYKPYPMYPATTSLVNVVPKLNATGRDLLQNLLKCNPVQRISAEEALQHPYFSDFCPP
CDK5/p35(h), sequence (Q15078 whole entry partner): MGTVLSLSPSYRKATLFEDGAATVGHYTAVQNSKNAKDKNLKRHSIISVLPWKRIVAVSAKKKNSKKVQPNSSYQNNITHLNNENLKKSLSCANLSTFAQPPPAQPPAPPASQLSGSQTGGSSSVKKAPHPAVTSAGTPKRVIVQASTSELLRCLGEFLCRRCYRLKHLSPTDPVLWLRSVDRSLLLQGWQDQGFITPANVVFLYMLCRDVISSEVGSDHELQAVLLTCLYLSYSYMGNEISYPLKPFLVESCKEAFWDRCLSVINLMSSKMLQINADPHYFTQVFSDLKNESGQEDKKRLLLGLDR
Rsk1(h), sequence (Q15418 whole entry): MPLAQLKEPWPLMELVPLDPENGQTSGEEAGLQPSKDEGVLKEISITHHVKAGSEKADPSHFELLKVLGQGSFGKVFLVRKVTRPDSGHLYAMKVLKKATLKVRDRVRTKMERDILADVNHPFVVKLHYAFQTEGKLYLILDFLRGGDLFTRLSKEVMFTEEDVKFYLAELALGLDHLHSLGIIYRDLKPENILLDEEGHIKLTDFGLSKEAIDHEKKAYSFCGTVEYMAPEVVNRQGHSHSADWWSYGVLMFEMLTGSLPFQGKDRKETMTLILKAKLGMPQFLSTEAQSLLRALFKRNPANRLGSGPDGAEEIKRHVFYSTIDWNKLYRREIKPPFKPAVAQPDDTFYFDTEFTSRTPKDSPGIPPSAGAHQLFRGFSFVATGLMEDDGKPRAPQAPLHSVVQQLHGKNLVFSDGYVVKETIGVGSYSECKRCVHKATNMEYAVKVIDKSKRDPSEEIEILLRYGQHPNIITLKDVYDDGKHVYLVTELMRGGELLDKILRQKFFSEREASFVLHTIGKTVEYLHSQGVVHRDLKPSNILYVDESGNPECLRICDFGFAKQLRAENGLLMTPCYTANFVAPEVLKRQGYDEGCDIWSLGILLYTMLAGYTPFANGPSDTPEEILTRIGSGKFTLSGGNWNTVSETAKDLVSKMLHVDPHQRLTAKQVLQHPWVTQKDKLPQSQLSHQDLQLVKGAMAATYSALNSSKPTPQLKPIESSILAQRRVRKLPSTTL
BRK(h), sequence (Q13882 whole entry): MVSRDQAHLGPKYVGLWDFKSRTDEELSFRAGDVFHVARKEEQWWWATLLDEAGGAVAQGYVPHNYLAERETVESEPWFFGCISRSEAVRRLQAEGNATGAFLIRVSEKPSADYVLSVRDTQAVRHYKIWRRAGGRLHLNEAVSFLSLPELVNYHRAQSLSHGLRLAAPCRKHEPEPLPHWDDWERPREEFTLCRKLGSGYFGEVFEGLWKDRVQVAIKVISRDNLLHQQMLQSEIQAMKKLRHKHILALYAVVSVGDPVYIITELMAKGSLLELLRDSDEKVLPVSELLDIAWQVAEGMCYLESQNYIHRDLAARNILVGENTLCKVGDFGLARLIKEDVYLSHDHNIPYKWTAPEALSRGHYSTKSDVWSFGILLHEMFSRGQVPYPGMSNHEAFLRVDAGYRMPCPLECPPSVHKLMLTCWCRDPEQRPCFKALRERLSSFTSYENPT
CDK7/cyclinH/MAT1(h), sequence (P50613 whole entry): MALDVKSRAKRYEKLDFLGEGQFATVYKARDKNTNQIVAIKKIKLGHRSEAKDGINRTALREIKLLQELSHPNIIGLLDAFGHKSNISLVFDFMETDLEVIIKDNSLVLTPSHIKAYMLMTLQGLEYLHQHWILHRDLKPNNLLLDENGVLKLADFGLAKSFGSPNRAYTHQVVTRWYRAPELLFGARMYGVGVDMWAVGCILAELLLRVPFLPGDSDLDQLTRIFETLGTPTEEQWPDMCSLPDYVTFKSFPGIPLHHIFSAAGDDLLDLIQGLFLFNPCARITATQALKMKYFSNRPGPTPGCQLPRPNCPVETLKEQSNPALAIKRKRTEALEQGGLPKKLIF
CDK7/cyclinH/MAT1(h), sequence (P51946 whole entry partner): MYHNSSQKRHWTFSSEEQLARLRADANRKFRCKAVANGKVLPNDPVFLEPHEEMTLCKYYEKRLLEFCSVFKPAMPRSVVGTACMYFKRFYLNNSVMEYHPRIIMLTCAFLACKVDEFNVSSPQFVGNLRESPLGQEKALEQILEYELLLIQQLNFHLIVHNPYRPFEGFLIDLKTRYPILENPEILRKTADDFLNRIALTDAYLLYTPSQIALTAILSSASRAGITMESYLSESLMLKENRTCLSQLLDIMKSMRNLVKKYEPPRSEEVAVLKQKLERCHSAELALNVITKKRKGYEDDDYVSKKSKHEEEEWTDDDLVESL
CDK7/cyclinH/MAT1(h), sequence (P51948 whole entry partner): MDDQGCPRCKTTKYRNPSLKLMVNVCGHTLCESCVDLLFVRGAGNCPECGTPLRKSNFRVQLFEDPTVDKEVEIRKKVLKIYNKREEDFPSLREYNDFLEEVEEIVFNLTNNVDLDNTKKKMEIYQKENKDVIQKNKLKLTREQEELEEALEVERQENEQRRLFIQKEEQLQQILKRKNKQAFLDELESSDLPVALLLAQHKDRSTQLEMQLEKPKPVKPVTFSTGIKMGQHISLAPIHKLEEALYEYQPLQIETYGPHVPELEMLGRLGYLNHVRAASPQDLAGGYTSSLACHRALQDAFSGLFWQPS
JAK2(h), sequence (O60674 whole entry): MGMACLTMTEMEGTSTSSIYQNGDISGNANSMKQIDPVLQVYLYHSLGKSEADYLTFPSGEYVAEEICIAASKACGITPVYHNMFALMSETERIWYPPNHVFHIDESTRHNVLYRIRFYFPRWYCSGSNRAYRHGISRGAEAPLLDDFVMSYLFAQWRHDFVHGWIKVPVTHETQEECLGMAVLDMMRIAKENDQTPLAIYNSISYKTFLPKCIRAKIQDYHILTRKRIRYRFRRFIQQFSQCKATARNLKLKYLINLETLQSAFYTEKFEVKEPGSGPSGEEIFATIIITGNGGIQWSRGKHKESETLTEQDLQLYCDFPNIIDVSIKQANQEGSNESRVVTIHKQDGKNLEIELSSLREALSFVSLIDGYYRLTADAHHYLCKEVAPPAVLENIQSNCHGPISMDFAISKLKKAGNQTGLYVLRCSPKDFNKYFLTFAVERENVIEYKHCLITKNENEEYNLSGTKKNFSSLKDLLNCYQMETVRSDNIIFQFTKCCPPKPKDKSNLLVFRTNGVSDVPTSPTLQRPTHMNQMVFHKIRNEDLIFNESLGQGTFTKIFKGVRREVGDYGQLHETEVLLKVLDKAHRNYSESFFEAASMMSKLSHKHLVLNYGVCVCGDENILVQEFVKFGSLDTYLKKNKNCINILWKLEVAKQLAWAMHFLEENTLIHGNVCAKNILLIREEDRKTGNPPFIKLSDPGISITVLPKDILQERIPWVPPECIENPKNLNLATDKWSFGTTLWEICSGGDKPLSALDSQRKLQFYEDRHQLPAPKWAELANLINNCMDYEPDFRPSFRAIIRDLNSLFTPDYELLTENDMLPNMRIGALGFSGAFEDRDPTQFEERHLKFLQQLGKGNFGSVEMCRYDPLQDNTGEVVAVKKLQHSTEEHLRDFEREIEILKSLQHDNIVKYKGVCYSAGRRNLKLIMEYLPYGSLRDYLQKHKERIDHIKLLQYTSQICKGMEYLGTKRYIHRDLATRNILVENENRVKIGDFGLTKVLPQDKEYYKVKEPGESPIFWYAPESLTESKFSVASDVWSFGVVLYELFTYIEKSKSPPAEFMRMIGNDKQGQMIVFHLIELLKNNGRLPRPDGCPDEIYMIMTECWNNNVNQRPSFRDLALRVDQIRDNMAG
LIMK1(h), sequence (P53667 whole entry): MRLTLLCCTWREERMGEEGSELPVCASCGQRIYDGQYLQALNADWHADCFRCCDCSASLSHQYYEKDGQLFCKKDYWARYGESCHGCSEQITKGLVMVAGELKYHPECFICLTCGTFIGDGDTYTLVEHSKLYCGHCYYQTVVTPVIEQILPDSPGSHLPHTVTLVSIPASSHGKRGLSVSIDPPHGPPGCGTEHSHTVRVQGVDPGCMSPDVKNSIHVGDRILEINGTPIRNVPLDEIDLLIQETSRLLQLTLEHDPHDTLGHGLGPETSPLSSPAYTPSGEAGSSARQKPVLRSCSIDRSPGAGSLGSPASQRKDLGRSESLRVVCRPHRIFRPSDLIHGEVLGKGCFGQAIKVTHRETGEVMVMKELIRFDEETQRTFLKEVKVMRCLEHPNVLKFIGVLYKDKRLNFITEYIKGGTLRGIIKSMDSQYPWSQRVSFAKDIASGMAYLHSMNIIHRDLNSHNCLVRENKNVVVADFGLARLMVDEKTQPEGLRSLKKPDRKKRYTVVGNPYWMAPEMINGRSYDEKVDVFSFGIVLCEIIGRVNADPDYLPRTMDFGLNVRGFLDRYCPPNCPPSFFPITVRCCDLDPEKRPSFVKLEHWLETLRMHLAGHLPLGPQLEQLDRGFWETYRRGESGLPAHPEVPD

inhibition at 1 µM [1] [%] | inhibition at 1 µM [2] [%] | inhibition at 1 µM [3] [%] | inhibition at 1 µM [4] [%] | inhibition at 1 µM [5] [%] | inhibition at 1 µM [6] [%] | inhibition at 1 µM [7] [%] | inhibition at 1 µM [8] [%] | inhibition at 1 µM [9] [%] | inhibition at 1 µM [10] [%] | inhibition at 1 µM [11] [%] | SMILES
19 | 8 | 90 | 14 | -8 | 35 | 15 | 8 | -18 | 10 | 2 | Nc1n[nH]c2ccc(-c3ccnc4[nH]c(-c5ccnc(OCc6ccccc6)c5)cc34)cc12 [Compound 6g [SU1349]]
90 | 46 | 101 | 85 | 25 | 88 | 58 | 5 | 38 | 87 | 81 | Nc1n[nH]c2ccc(-c3ccnc4[nH]c(-c5ccccc5)cc34)cc12 [Compound 4]
32 | 17 | 96 | 37 | 3 | 73 | 21 | 4 | 2 | 18 | 22 | Nc1n[nH]c2ccc(-c3ccnc4[nH]c(-c5cccc(OCc6ccccc6)c5)cc34)cc12 [Compound 5r [SU1261]]
